Experimental data reported in patent US20120100109A1, “Method for increasing the replication of oncolytic HSVs in highly resistant tumor cells using mTOR pathway and PI3K inhibitors” (priority 2010, published 2012).

Key:
[1] = system: highly resistant tumor cells (EC9706, MCF-7 and Hela cells); assay: Spread and replication of Baco-1 (GFP) in highly resistant tumor cell monolayers (FIG. 3B, 3C); type: cell-based; settings: infected cells incubated with inhibitor
From the text: Because Baco-1 contains the Green Fluorescent Protein (GFP) gene, it is possible to visualize GFP expression during virus infection and thus monitor the spread of virus among tumor cells.
The effect of PI3K inhibitor, LY294002, on the replication of Baco-1 is examined in these cells. The three highly resistant tumor cell lines are infected with Baco-1, with or without the presence of LY294002 in the medium.
In the same experiment, three highly resistant tumor cells (EC9706, MCF-7 and Hela cells) are infected with Baco-1 at 0.01 pfu/cell and incubated without or with rapamycin at a concentration of 100 nM, or LY294002 at 50 μM concentration.

EC9706 cells [2] = assay: Baco-1 virus yield (plaque assay) with or without drug, EC9706 cells; type: cell-based, human
Procedure: (§1) A. EC9706 cells were either preincubated with rapamycin overnight (Pre-Inf) or incubated with the drug during the virus infection (During-Inf). They were then infected with Baco-1 at 0.1 pfu/cell and for 72 h. Fold increase in virus yield was calculated by dividing […]. […] B. MCF-7 and HeLa cells were infected with Baco-1 at 0.01 pfu/cell for 1 h. Then the cells were cultured in medium without (control) or with rapamycin at a concentration of 100 nM for 72 h before harvesting for virus titration.

MCF-7 = assay: Baco-1 virus yield with or without rapamycin, MCF-7 cells; type: cell-based, human; settings: MCF-7 (breast); Baco-1 yield, well with rapamycin / well without
Procedure: as §1

HeLa = assay: Baco-1 virus yield with or without rapamycin, HeLa cells; type: cell-based; settings: HeLa (cervix); Baco-1 yield, well with rapamycin / well without
Procedure: as §1

293T = assay: Baco-1 virus yield with or without rapamycin, 293T cells; type: cell-based; settings: 293T (kidney); Baco-1 yield, well with rapamycin / well without
SW480 = assay: Baco-1 virus yield with or without rapamycin, SW480 cells; type: cell-based; settings: SW480 (colon); Baco-1 yield, well with rapamycin / well without
HepG2 = assay: Baco-1 virus yield with or without rapamycin, HepG2 cells; type: cell-based; settings: HepG2 (liver); Baco-1 yield, well with rapamycin / well without
HuH-7 = assay: Baco-1 virus yield with or without rapamycin, HuH-7 cells; type: cell-based; settings: HuH-7 (liver); Baco-1 yield, well with rapamycin / well without
Hep3B = assay: Baco-1 virus yield with or without rapamycin, Hep3B cells; type: cell-based; settings: Hep3B (liver); Baco-1 yield, well with rapamycin / well without
MDA-MB-231 = assay: Baco-1 virus yield with or without rapamycin, MDA-MB-231 cells; type: cell-based; settings: MDA-MB-231 (breast); Baco-1 yield, well with rapamycin / well without
MDA-MB-435 = assay: Baco-1 virus yield with or without rapamycin, MDA-MB-435 cells; type: cell-based; settings: MDA-MB-435 (breast); Baco-1 yield, well with rapamycin / well without
A549 = assay: Baco-1 virus yield with or without rapamycin, A549 cells; type: cell-based; settings: A549 (lung); Baco-1 yield, well with rapamycin / well without
DLD-1 = assay: Baco-1 virus yield with or without rapamycin, DLD-1 cells; type: cell-based; settings: DLD-1 (colon); Baco-1 yield, well with rapamycin / well without
HCT116 = assay: Baco-1 virus yield with or without rapamycin, HCT116 cells; type: cell-based; settings: HCT116 (colon); Baco-1 yield, well with rapamycin / well without
PANC-1 = assay: Baco-1 virus yield with or without rapamycin, PANC-1 cells; type: cell-based; settings: PANC-1 (pancreas); Baco-1 yield, well with rapamycin / well without
MPanc-96 = assay: Baco-1 virus yield with or without rapamycin, MPanc-96 cells; type: cell-based; settings: MPanc-96 (pancreas); Baco-1 yield, well with rapamycin / well without
[3] = system: resistant tumor cells (EC9706, MCF-7, HeLa); assay: Baco-1 virus yield in resistant tumor cells with or without rapamycin (FIG. 2B, 2C); type: cell-based
Procedure: FIG. 2. […] Virus yield, as determined by plaque assay. Values represent the mean±SD of triplicate experiments.
as §1

EC9706 cells [4] = assay: Yield of other HSVs (17+, FusOn-H2, ApE-Mir-3) in EC9706 cells with or without rapamycin (FIG. 4); type: cell-based, human; settings: EC9706, 0.1 pfu/cell, rapamycin 100 nM
From the text: In another preferred embodiment of the present invention the potentiating effect of rapamycin on virus replication in highly resistant tumor cells is applied to other oncolytic HSVs, including strain 17 (17^+), a wild-type HSV-1, FusOn-H2, which is constructed from an HSV-2 by mutating the N-terminal region of the ICP 10 gene (Fu, et al., A Mutant Type 2 Herpes Simplex Virus Deleted for the Protein Kinase Domain of the ICP10 Gene Is a Potent Oncolytic Virus, Mol. Ther. 2006; 13:882-90), and ApE-Mir-3, an HSV-1-based oncolytic virus in which the glycoprotein H (gH) gene is controlled by tissue-specific microRNAs (miRNAs), including let-7 and mir-122. To that end, EC9706 cells are infected with these viruses at 0.1 pfu/cell for 1 h and then cultured the cells in media with or without rapamycin at a concentration of 100 nM. […] Replication of the HSV-2-based oncolytic virus, FusOn-H2, is increased by approximately 5-fold, similar to those seen with Baco-1.
EC9706 cells were infected with three other types of oncolytic HSVs, including FusOn-H2 (an oncolytic HSV derived from HSV-2, while Baco-1 was derived from HSV-1) and Ape-Mir3 (an oncolytic HSV specifically targets to hepatocellular carcinoma), at 0.1 pfu/cell and then incubated with medium without or with rapamycin (100 nM) for 72 h before harvesting for virus titration.

With `CC[n+]1c(/C=C/N(C)c2ccccc2)n(-c2ccccc2)c2ccc(-c3nc4ccccc4s3)cc21.[I-]` [Akt Inhibitor IV] the “Effect on Baco-1 replication” value [1] was “does not result in any significant increase in Baco-1 replication”.
In the case of `CO[C@H]1C[C@@H]2CC[C@@H](C)[C@@](O)(O2)C(=O)C(=O)N2CCCC[C@H]2C(=O)O[C@H]([C@H](C)C[C@@H]2CC[C@@H](O)[C@H](OC)C2)CC(=O)[C@H](C)/C=C(\C)[C@@H](O)[C@@H](OC)C(=O)[C@H](C)C[C@H](C)/C=C/C=C/C=C/1C` [rapamycin], the “Fold of change in virus yield” value (EC9706 cells [2]; EC9706 (esophagus), Baco-1 yield, well with rapamycin / well without) is reported as 5.98, the “Fold increase in virus yield” value (EC9706 cells [2]; EC9706 cells, Baco-1 0.1 pfu/cell, 72 h, drug in the medium, FIG. 2A) is reported as roughly 6 fold and the “Fold of change in virus yield” value (MCF-7) is reported as 4.86. The “Fold of change in virus yield” value (HeLa) was 3.0, the “Fold of change in virus yield” value (293T) was 8.01 and the “Fold of change in virus yield” value (SW480) was 5.31. For the same compound, the “Fold of change in virus yield” value (HepG2) was 1.04, the “Fold of change in virus yield” value (HuH-7) was 0.8 and the “Fold of change in virus yield” value (Hep3B) was 1.10. The “Fold of change in virus yield” value (MDA-MB-231) was 0.87, the “Fold of change in virus yield” value (MDA-MB-435) was 0.6 and the “Fold of change in virus yield” value (A549) was 0.42. For the same compound, the “Fold of change in virus yield” value (DLD-1) was 1.02, the “Fold of change in virus yield” value (HCT116) was 0.5 and the “Fold of change in virus yield” value (PANC-1) was 0.99. For the same compound, the “Fold of change in virus yield” value (MPanc-96) was 0.55, the “Fold increase in virus yield” value ([3]; MCF-7 and HeLa cells, Baco-1 0.01 pfu/cell, rapamycin 100 nM, 72 h, FIG. 2B) was 3-5 fold and the “Virus yield in the presence of rapamycin” value ([3]; resistant tumor cells, Baco-1, FIG. 2C) was ~5×10^6 pfu. The “Increase in replication of ApE-Mir-3” value (EC9706 cells [4]) was 2.5 fold, the “Increase in replication of FusOn-H2” value (EC9706 cells [4]) was “approximately 5 fold” and the “Increase in virus yield of strain 17+ (wild-type HSV-1)” value (EC9706 cells [4]) was “more than 10 fold”. The “Increase in yield of other oncolytic HSVs (pooled statement)” value (EC9706 cells [4]; 72 h) was 3-10 folds.
